Reference: patent US10954503B2, “Antidotes for factor Xa inhibitors and methods of using the same” (Alexion Pharmaceuticals, Inc., priority 2007, dated 2021)

Columns and labels:
aPTT of human plasma = test: aPTT clotting assay with MLA Electra 800 automatic coagulation timer; assay type: biochemical
thrombin generation = test: Thrombin generation assay in platelet poor or platelet rich plasma (RFU); assay type: biochemical, human; conditions: betrixaban 250 nM; all rfVIIa concentrations tested
[1] = in vivo; cited from earlier work

COc1ccc(NC(=O)c2ccc(C(=N)N(C)C)cc2)c(C(=O)Nc2ccc(Cl)cn2)c1 [betrixaban, [2-({4-[(dimethylamino)iminomethyl]phenyl}carbonylamino)-5-methoxyphenyl]-N-(5-chloro(2-pyridyl))carboxamide]
aPTT (aPTT of human plasma; 300 nM Betrixaban alone): 61.8 s
aPTT (aPTT of human plasma; 400 nM Betrixaban alone): 66.3 s
extension of aPTT (aPTT of human plasma; 400 nM betrixaban): more than two folds
inhibition of fXa by betrixaban in the presence of rfVIIa (thrombin generation): about 75%

O=C(NC[C@H]1CN(c2ccc(N3CCOCC3=O)cc2)C(=O)O1)c1ccc(Cl)s1 [rivaroxaban]
reported therapeutic concentration [1]: approximately 600 nM
